Target: DNA-dependent protein kinase catalytic subunit (Homo sapiens, UniProt P78527)
Assay: Biochemical Assay: The kinase assay was carried out in streptavidin-coated […] microtitre flashplates. […] The reaction was stopped using 50 ul/well of 200 mM EDTA. After incubation for a further 30 min at room temperature, the liquid was removed. Each well was washed three times with 100 ul of 0.9% saline solution. A nonspecific reaction (blank value) was determined using 10 uM of an innate kinase inhibitor. The radioactivity measurement was carried out using a TopCount. IC50 values were calculated in RS1.

Chain of DNA-dependent protein kinase catalytic subunit (P78527 whole entry): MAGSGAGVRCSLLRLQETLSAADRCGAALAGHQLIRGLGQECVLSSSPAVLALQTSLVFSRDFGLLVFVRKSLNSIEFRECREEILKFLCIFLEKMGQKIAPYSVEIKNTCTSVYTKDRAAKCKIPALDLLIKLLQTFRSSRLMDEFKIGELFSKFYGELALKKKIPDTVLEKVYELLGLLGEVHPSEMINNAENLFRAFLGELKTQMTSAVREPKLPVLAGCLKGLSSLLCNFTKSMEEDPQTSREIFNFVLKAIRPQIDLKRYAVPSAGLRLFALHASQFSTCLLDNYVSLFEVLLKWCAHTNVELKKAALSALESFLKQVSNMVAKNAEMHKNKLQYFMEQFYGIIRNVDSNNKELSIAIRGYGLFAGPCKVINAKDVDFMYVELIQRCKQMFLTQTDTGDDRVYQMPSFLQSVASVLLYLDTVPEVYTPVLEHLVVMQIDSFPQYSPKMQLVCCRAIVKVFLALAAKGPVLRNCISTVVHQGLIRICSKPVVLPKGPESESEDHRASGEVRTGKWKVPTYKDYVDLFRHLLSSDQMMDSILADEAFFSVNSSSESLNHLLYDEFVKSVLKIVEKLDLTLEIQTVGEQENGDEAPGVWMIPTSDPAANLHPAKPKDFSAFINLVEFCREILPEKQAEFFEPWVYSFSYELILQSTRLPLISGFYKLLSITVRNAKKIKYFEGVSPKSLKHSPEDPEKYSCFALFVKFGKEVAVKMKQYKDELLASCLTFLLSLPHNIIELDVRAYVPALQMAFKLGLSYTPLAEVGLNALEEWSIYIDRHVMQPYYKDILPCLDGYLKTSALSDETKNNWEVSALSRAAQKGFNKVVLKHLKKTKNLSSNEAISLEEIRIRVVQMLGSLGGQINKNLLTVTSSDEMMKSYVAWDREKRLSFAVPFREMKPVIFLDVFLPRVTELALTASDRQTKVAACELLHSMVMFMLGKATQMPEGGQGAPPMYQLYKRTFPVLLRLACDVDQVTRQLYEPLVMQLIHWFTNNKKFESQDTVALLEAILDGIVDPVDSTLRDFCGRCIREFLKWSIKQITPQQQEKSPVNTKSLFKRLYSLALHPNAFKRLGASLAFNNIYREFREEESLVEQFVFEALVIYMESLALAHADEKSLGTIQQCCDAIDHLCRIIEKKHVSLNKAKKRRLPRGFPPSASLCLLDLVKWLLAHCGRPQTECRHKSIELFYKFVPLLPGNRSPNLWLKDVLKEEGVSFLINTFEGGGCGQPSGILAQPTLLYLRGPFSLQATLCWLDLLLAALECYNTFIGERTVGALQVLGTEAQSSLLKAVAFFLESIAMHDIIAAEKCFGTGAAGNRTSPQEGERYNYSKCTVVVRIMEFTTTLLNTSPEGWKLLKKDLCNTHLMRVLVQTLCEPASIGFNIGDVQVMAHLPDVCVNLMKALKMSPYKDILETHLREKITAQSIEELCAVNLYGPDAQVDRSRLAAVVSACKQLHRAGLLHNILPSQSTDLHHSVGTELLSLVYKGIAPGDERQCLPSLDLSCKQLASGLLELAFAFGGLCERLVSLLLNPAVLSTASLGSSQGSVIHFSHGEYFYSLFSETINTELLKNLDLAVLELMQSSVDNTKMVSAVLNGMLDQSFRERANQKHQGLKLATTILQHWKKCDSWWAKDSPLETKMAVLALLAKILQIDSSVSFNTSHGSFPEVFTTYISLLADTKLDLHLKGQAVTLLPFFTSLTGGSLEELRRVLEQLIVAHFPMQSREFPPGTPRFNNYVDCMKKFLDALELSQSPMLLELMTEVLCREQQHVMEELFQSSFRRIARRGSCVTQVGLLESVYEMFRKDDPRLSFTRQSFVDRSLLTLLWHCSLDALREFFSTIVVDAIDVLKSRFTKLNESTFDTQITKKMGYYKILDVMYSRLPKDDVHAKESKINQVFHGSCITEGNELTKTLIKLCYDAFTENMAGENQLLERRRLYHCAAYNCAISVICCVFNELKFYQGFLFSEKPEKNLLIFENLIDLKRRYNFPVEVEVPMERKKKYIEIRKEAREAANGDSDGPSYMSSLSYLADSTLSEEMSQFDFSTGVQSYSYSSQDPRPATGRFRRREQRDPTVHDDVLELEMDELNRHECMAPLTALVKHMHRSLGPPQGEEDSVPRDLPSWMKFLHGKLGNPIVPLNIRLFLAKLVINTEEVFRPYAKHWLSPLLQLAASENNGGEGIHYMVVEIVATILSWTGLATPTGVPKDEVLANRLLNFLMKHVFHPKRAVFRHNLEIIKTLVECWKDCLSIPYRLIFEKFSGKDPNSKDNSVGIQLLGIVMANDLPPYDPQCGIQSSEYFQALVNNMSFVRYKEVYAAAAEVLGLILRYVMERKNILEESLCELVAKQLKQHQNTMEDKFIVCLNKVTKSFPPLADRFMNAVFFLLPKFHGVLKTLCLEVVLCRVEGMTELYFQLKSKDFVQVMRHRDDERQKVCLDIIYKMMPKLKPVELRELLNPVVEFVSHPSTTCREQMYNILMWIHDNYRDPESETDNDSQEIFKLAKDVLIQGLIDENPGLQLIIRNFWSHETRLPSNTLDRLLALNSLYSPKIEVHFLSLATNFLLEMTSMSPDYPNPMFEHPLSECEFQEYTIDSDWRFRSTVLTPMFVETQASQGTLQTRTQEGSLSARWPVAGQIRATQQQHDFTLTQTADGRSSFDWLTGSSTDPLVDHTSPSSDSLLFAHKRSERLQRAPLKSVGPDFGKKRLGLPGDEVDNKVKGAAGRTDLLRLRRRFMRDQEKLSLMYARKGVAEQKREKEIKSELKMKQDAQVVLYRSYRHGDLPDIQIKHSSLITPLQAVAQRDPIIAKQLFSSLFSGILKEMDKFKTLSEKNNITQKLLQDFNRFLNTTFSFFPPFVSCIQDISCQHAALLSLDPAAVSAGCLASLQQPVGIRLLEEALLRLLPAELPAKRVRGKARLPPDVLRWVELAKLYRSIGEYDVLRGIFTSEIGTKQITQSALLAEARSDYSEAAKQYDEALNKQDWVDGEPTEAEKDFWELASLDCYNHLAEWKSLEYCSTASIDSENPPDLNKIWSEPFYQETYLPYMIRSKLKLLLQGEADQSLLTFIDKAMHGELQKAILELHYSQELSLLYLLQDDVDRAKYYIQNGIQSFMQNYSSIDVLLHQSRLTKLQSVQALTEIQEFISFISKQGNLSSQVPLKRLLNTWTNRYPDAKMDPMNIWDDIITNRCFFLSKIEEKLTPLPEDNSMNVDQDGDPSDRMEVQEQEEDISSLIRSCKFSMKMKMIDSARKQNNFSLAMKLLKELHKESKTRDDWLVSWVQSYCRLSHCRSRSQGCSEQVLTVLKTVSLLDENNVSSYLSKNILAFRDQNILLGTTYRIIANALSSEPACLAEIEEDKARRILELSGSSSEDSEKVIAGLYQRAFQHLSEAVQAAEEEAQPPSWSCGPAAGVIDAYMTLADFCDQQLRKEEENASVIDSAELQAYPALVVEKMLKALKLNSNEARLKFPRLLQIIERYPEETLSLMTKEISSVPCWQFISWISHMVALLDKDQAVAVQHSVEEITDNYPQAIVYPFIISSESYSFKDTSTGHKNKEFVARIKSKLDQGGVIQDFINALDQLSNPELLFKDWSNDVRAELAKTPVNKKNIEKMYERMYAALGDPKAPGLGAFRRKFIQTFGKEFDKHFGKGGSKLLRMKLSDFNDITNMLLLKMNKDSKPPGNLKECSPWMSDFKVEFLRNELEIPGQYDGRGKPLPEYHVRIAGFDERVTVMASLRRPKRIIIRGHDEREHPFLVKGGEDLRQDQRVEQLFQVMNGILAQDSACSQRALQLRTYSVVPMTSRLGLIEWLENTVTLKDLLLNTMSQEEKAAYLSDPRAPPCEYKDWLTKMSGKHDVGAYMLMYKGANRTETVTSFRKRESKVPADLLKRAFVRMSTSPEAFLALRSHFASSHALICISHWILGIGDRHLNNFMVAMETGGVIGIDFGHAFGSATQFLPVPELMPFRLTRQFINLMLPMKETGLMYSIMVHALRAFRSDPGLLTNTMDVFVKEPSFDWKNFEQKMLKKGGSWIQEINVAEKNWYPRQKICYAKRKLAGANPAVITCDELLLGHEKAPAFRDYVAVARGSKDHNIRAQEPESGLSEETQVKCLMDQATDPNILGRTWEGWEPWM

Compound: CCNCc1csc(C(O)c2cc(-c3ncnc4cc(N5CCOCC5)ccc34)c(F)cc2Cl)n1 (stereo unspecified)
- IC50: 7 to 30 nM
